Experimental data taken from PubChem BioAssay AID1963435 (Molecular Pharmacology Branch, DTP, NCI, 2024).

Test system: PANC-1 complex spheroid growth, percent test/control
Test: Anticancer human tumor PANC-1 cell line growth inhibition [Asc];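 further: spheroids exposed to agents for 7 days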;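 on viability, T/C: percent viability relative to DMSO vehicle wells taken as 100%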
Conditions: for IC50: curve of first compound; for viability, T/C: stronger effect = lower value
Description: Multicellular complex tumor spheroid response to apoptosis pathway targeting inhibitors Alrizomadlin, Pelcitoclax, and Dasminapant in combination with a variety of drugs and investigational agents in selected tumor cell lines
The MDM2 inhibitor alrizomadlin, the Bcl-2/Bcl-xL inhibitor pelcitoclax, and the IAPs inhibitor dasminapant were evaluated both individually and in combination with standard of care and investigational anticancer small molecules within a complex spheroid model of solid tumors. . Complex spheroids include a stromal component modeled by human endothelial cells (HUVEC) and fibroblasts modeled by human mesenchymal stem cells (MSCs). The concentration ranges selected for each drug and investigational agent were based upon clinically achievable concentrations if the clinical Cmax of the agent was known.
Compounds. The drugs and investigational agents: alrizomadlin (APG-115; NSC831270), pelcitoclax (APG-1252; NSC835773), dasminapant (APG-1387;NSC834197), TAK-243 (NSC785004), copanlisib (NSC809693), olaparib (NSC753686), talazoparib (NSC767125), cobimetinib (NSC 768068), eltanexor (KPT-8602, NSC 794443), abemaciclib (NSC 768073), sotorasib (NSC818433), adagrasib (NSC 831453), MRTX-1133 (NSC 836407), Iadademestat (ORY1001, NSC 806812), and RMC-4630 (NSC839698), were obtained from the NCI Developmental Therapeutics Program Chemical Repository. The FDA-approved anticancer drug set is available from the Developmental Therapeutics Program at https://dtp.cancer.gov/organization/dscb/obtaining/available plates.htm. […] The stock solutions were prepared in dimethyl sulfoxide (DMSO, Sigma-Aldrich, St. Louis, MO, cat. D2650) at 800-fold the tested concentration and stored at -70 degrees C prior to their use. All drugs and investigational agents were tested over a range starting from a high concentration at or near the clinical Cmax and decreasing in half-log increments. If the clinical Cmax for an agent had not been determined, the highest concentration tested was 10 microM.
The patient-derived cancer (PDC) cell lines include five colon adenocarcinomas: 186277-243-T-J2-PDC, 616215-338-R-J1-PDC, 439559-082-T-J2-PDC, 463943-066-T-J2-PDC, and 519858-162-T-J1-PDC; three pancreatic carcinomas: 323965-272-R-J2-PDC, 521955-158-R6-J3-PDC, and 521955-158-R2-J5-PDC; two uterine sarcomas: 327498-152-R-J2-PDC and 993429-296-R-J1-PDC; two rhabdomyosarcomas: 755483-174-R-J1-PDC and 772245-204-R-J1-PDC; two soft tissue sarcomas: 126254-015-R-J1-PDC and 494315-158-R-J1-PDC; two malignant fibrous histiocytomas: 317291-083-R-J1-PDC and 596521-263-R-J1-PDC; two breast carcinomas: 171881-019-R-J1-PDC and 885512-296-R-J2-PDC; and one ovarian carcinoma: 6556581-035-R-J-PDC were obtained from the NCI PDMR, (https://pdmr.cancer.gov). The established cell lines HSSY-2 synovial sarcoma (RRID:CVCL 8719), SYO-1 synovial sarcoma (RRID:CVCL_7146), MPNST malignant peripheral neural sheath tumor were obtained from the Sloan Kettering Institute. The following established cell lines were purchased from the American Type Culture Collection (ATCC, Manassas, VA), Sor the received from the NCI repository:, PANC-1 pancreatic carcinoma (CRL-1469, RRID:CVCL_0480), OVCAR-5 ovarian carcinoma (RRID:CVCL_1628), OVCAR-8 ovarian carcinoma (RRID:CVCL_1629), , MCF-7 breast carcinoma (CRL-12584, RRID:CVCL_0031), MDA-MB-231 breast carcinoma (CRL-12532, RRID:CVCL_0062), NCI-H1876 small cell lung carcinoma (CRL-5902, RRID:CVCL_1503), NCI-H510A small cell lung carcinoma (HTB-184, RRID:CVCL_1565), NCI-H1417 (CRL-5869, RRID:CVCL_1469), and NCI-H196 small cell lung carcinoma (CRL-5823, RRID:CVCL_1509). Dr. Peter Houghton (Greehey Children's Cancer Research Institute, University of Texas Health Science Center, San Antonio, TX) provided Rh-18 rhabdomyosarcoma (RRID:CVCL_1659). Pooled donor human umbilical vein endothelial cells (HUVEC, Lonza, cat. CC-2519) and human mesenchymal stem cells (hMSC, Lonza, cat. PT-2501) were purchased from Lonza (Walkersville, MD).
Cell Culture. […]

[1] = second compound 0.00949 µM, first compound 0.00316 µM
[2] = second compound 0.00949 µM, first compound 0.01 µM
[3] = second compound 0.00949 µM, first compound 0.0316 µM
[4] = second compound 0.00949 µM, first compound 0.1 µM
[5] = second compound 0.00949 µM, first compound 0.316 µM
[6] = second compound 0.00949 µM, first compound 1 µM
[7] = second compound 0.03 µM, first compound 0.00316 µM
[8] = second compound 0.03 µM, first compound 0.01 µM
[9] = second compound 0.03 µM, first compound 0.0316 µM
[10] = second compound 0.03 µM, first compound 0.1 µM
[11] = second compound 0.03 µM, first compound 0.316 µM
[12] = second compound 0.03 µM, first compound 1 µM
[13] = second compound 0.0949 µM, first compound 0.00316 µM
[14] = second compound 0.0949 µM, first compound 0.01 µM
[15] = second compound 0.0949 µM, first compound 0.0316 µM
[16] = second compound 0.0949 µM, first compound 0.1 µM
[17] = second compound 0.0949 µM, first compound 0.316 µM
[18] = second compound 0.0949 µM, first compound 1 µM
[19] = second compound 0.3 µM, first compound 0.00316 µM
[20] = second compound 0.3 µM, first compound 0.01 µM
[21] = second compound 0.3 µM, first compound 0.0316 µM
[22] = second compound 0.3 µM, first compound 0.1 µM
[23] = second compound 0.3 µM, first compound 0.316 µM
[24] = second compound 0.3 µM, first compound 1 µM
[25] = second compound 0.949 µM, first compound 0.00316 µM
[26] = second compound 0.949 µM, first compound 0.01 µM
[27] = second compound 0.949 µM, first compound 0.0316 µM
[28] = second compound 0.949 µM, first compound 0.1 µM
[29] = second compound 0.949 µM, first compound 0.316 µM
[30] = second compound 0.949 µM, first compound 1 µM
[31] = second compound 3 µM, first compound 0.00316 µM
[32] = second compound 3 µM, first compound 0.01 µM
[33] = second compound 3 µM, first compound 0.0316 µM
[34] = second compound 3 µM, first compound 0.1 µM
[35] = second compound 3 µM, first compound 0.316 µM
[36] = second compound 3 µM, first compound 1 µM

CCN1CCN(Cc2ccc(Nc3ncc(F)c(-c4cc(F)c5nc(C)n(C(C)C)c5c4)n3)nc2)CC1 + CCN1C(C(=O)NC23CCC(C(=O)O)(CC2)CC3)C(c2cccc(Cl)c2F)C2(C(=O)Nc3cc(Cl)ccc32)C12CCCCC2
IC50 (second compound 0.00949 µM): > 1000 nM
IC50 (second compound 0.03 µM): > 1000 nM
IC50 (second compound 0.0949 µM): > 1000 nM
IC50 (second compound 0.3 µM): > 1000 nM
IC50 (second compound 0.949 µM): > 1000 nM
IC50 (second compound 3 µM): > 1000 nM
viability, T/C [1]: 112%
viability, T/C [2]: 102%
viability, T/C [3]: 109%
viability, T/C [4]: 117%
viability, T/C [5]: 126%
viability, T/C [6]: 139%
viability, T/C [7]: 105%
viability, T/C [8]: 97.8%
viability, T/C [9]: 114%
viability, T/C [10]: 114%
viability, T/C [11]: 131%
viability, T/C [12]: 141%
viability, T/C [13]: 108%
viability, T/C [14]: 108%
viability, T/C [15]: 105%
viability, T/C [16]: 105%
viability, T/C [17]: 125%
viability, T/C [18]: 140%
viability, T/C [19]: 99.8%
viability, T/C [20]: 131%
viability, T/C [21]: 110%
viability, T/C [22]: 117%
viability, T/C [23]: 124%
viability, T/C [24]: 150%
viability, T/C [25]: 102%
viability, T/C [26]: 119%
viability, T/C [27]: 121%
viability, T/C [28]: 111%
viability, T/C [29]: 128%
viability, T/C [30]: 140%
viability, T/C [31]: 116%
viability, T/C [32]: 125%
viability, T/C [33]: 118%
viability, T/C [34]: 124%
viability, T/C [35]: 131%
viability, T/C [36]: 157%

O=C(c1ccc(F)c(F)c1Nc1ccc(I)cc1F)N1CC(O)([C@@H]2CCCCN2)C1 + CCN1C(C(=O)NC23CCC(C(=O)O)(CC2)CC3)C(c2cccc(Cl)c2F)C2(C(=O)Nc3cc(Cl)ccc32)C12CCCCC2
IC50 (second compound 0.00949 µM): > 1000 nM
IC50 (second compound 0.03 µM): > 1000 nM
IC50 (second compound 0.0949 µM): > 1000 nM
IC50 (second compound 0.3 µM): > 1000 nM
IC50 (second compound 0.949 µM): > 1000 nM
IC50 (second compound 3 µM): > 1000 nM
viability, T/C [1]: 90.7%
viability, T/C [2]: 93.4%
viability, T/C [3]: 87.1%
viability, T/C [4]: 81.8%
viability, T/C [5]: 93.1%
viability, T/C [6]: 93.7%
viability, T/C [7]: 90.5%
viability, T/C [8]: 98.3%
viability, T/C [9]: 98.5%
viability, T/C [10]: 87.3%
viability, T/C [11]: 95%
viability, T/C [12]: 97.4%
viability, T/C [13]: 93.9%
viability, T/C [14]: 97%
viability, T/C [15]: 88.4%
viability, T/C [16]: 84.2%
viability, T/C [17]: 92.4%
viability, T/C [18]: 104%
viability, T/C [19]: 97.5%
viability, T/C [20]: 89.4%
viability, T/C [21]: 89.6%
viability, T/C [22]: 91.7%
viability, T/C [23]: 100%
viability, T/C [24]: 93.8%
viability, T/C [25]: 100%
viability, T/C [26]: 104%
viability, T/C [27]: 91.8%
viability, T/C [28]: 105%
viability, T/C [29]: 104%
viability, T/C [30]: 99%
viability, T/C [31]: 110%
viability, T/C [32]: 115%
viability, T/C [33]: 106%
viability, T/C [34]: 105%
viability, T/C [35]: 109%
viability, T/C [36]: 112%
